This experiment concerns the target T1, BTK (Homo sapiens, UniProt Q06187).
T1 construct: endogenous in cells; host or cells: Mino cells
In words: BTK degradation activity test in Mino cells. It counts as cell-based. Particulars: 16 h incubation, Western blot or Elisa. The essentials:
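Mino cells treated with a concentration series of compound for 16 h, then lysed; total protein by BCA. BTK quantified by Western blot or ELISA, degradation rate calculated against blank control, and DC50 fitted from the degradation curve.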

T1 sequence (Q06187 whole entry): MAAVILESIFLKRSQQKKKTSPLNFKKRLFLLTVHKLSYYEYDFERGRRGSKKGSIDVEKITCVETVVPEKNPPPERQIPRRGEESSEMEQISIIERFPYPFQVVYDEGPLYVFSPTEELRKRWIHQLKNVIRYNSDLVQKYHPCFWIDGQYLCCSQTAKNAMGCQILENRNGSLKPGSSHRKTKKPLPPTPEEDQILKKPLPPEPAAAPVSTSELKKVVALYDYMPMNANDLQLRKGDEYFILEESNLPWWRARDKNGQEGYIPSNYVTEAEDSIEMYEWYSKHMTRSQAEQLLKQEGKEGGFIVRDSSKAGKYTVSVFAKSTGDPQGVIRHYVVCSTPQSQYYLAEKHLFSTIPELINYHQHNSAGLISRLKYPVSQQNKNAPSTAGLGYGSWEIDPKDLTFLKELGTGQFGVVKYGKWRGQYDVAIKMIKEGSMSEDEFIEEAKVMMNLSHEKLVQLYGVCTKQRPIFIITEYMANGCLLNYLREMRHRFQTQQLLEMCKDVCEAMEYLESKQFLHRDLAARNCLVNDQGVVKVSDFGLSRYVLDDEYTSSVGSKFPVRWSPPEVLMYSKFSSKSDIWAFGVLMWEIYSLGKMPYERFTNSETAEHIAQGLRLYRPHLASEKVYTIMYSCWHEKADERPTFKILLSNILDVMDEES

As for `CN1CCN([C@@H]2CCCN(c3nnc(C(N)=O)c(Nc4ccc(N5CCN(CC6CCN(c7ccc8c(c7)C(=O)N(C7CCC(=O)NC7=O)C8=O)CC6)CC5)c(F)c4F)n3)C2)C1=O` (stereo partly drawn) [Compound 165, 5-((4-(4-((1-(2-(2,6-dioxopiperidin-3-yl)-1,3-dioxoisoindolin-5-yl)piperidin-4-yl)methyl)piperazin-1-yl)-2,3-difluorophenyl)amino)-3-((R)-3-(3-methyl-2-oxoimidazolidin-1-yl)piperidin-1-yl)-1,2,4-triazin-6-carboxamide], the DC50 was less than 1 nM.

The molecule `CN1CCN([C@@H]2CCCN(c3nnc(C(N)=O)c(Nc4ccc(N5CCN(CC6CCN(c7cc8c(cc7F)C(=O)N(C7CCC(=O)NC7=O)C8=O)C6)CC5)c(F)c4)n3)C2)C1=O` (stereo partly drawn) [Compound 169, 5-((4-(4-((1-(2-(2,6-dioxopiperidin-3-yl)-6-fluoro-1,3-dioxoisoindolin-5-yl)pyrrolidin-3-yl)methyl)piperazin-1-yl)-3-fluorophenyl)amino)-3-((R)-3-(3-methyl-2-oxoimidazolidin-1-yl)piperidin-1-yl)-1,2,4-triazin-6-carboxamide] came in with a DC50 of less than 1 nM.

For `CN1CCN([C@@H]2CCCN(c3nnc(C(N)=O)c(Nc4ccc(N5CCN(CC6CCN(c7ccc(C(=O)NC8CCC(=O)NC8=O)cn7)CC6)CC5)c(F)c4)n3)C2)C1=O` (stereo partly drawn) [Compound 175, 5-((4-(4-((1-(5-((2,6-dioxopiperidin-3-yl)carbamoyl)pyridin-2-yl)piperidin-4-yl)methyl)piperazin-1-yl)-3-fluorophenyl)amino)-3-((R)-3-(3-methyl-2-oxoimidazolidin-1-yl)piperidin-1-yl)-1,2,4-triazin-6-carboxamide], the DC50 is less than 1 nM.

Consider `CN1CCN([C@@H]2CCCN(c3nnc(C(N)=O)c(Nc4ccc(N5CCN(CC6CCN(c7ccc(C(=O)NC8CCC(=O)NC8=O)c8c7OCO8)C6)CC5)c(F)c4)n3)C2)C1=O` (stereo partly drawn) [Compound 176, 5-((4-(4-((1-(7-((2,6-dioxopiperidin-3-yl)carbamoyl)benzo[d][1,3]dioxacyclopent-4-yl)pyrrolidin-3-yl)methyl)piperazin-1-yl)-3-fluorophenyl)amino)-3-((R)-3-(3-methyl-2-oxoimidazolidin-1-yl)piperidin-1-yl)-1,2,4-triazin-6-carboxamide], for which the DC50 was less than 1 nM.

`CN1CCN([C@@H]2CCCN(c3nnc(C(N)=O)c(Nc4ccc(N5CCN(CC6CCN(c7ccc(C(=O)NC8CCC(=O)NC8=O)c8[nH]cnc78)C6)CC5)c(F)c4)n3)C2)C1=O` (stereo partly drawn) [Compound 178, 4-(3-((4-(4-((6-carbamoyl-3-((R)-3-(3-methyl-2-oxoimidazolidin-1-yl)piperidin-1-yl)-1,2,4-triazin-5-yl)amino)-2-fluorophenyl)piperazin-1-yl)methyl)pyrrolidin-1-yl)-N-(2,6-dioxopiperidin-3-yl)-1Hbenzimidazol-7-carboxamide] came in with a DC50 of less than 1 nM.

In turn, `CN1CCN([C@@H]2CCCN(c3nnc(C(N)=O)c(Nc4ccc(N5CCN(CC6CCN(c7ccc(N8CCC(=O)NC8=O)c8c7OCO8)CC6)CC5)c(F)c4)n3)C2)C1=O` [Compound 190, (R)-5-((4-(4-((1-(7-(2,4-dioxotetrahydropyrimidin-1(2H)-yl)benzo[d][1,3]dioxacyclopent-4-yl)piperidin-4-yl)methyl)piperazin-1-yl)-3-fluorophenyl)amino)-3-(3-(3-methyl-2-oxoimidazolidin-1-yl)piperidin-1-yl)-1,2,4-triazin-6-carboxamide] displayed a DC50 of less than 1 nM.

`CN1CCN([C@@H]2CCCN(c3nnc(C(N)=O)c(Nc4ccc(N5CCN(CC6CCN(c7ccc(N8CCC(=O)NC8=O)c8c7OCCO8)CC6)CC5)c(F)c4)n3)C2)C1=O` [Compound 193, (R)-5-((4-(4-((1-(8-(2,4-dioxotetrahydropyrimidin-1(2H)-yl)-2,3-dihydrobenzo[b][1,4]dioxan-5-yl)piperidin-4-yl)methyl)piperazin-1-yl)-3-fluorophenyl)amino)-3-(3-(3-methyl-2-oxoimidazolidin-1-yl)piperidin-1-yl)-1,2,4-triazin-6-carboxamide]: the DC50 is less than 1 nM.

Molecule `CN1CCN([C@@H]2CCCN(c3nnc(C(N)=O)c(Nc4ccc(N5CCN(CC6CCN(c7ccc(N8CCC(=O)NC8=O)c(C8CC8)c7)CC6)CC5)c(F)c4)n3)C2)C1=O` [Compound 194, (R)-5-((4-(4-((1-(3-cyclopropyl-4-(2,4-dioxotetrahydropyrimidin-1(2H)-yl)phenyl)piperidin-4-yl)methyl)piperazin-1-yl)-3-fluorophenyl)amino)-3-(3-(3-methyl-2-oxoimidazolidin-1-yl)piperidin-1-yl)-1,2,4-triazin-6-carboxamide] came in with a DC50 of less than 1 nM.

`CN1CCN([C@@H]2CCCN(c3nnc(C(N)=O)c(Nc4ccc(N5CCN(CC6CCN(c7ccc(N8CCC(=O)NC8=O)cc7S(C)(=O)=O)CC6)CC5)c(F)c4)n3)C2)C1=O` [Compound 197, (R)-5-((4-(4-((1-(4-(2,4-dioxotetrahydropyrimidin-1(2H)-yl)-2-(methylsulfonyl)phenyl)piperidin-4-yl)methyl)piperazin-1-yl)-3-fluorophenyl)amino)-3-(3-(3-methyl-2-oxoimidazolidin-1-yl)piperidin-1-yl)-1,2,4-triazin-6-carboxamide] registered a DC50 of less than 1 nM.

`CN1CCN([C@@H]2CCCN(c3nnc(C(N)=O)c(Nc4ccc(N5CCN(CC6CCN(c7ccc(N8CCC(=O)NC8=O)cc7P(C)(C)=O)CC6)CC5)c(F)c4)n3)C2)C1=O` [Compound 198, (R)-5-((4-(4-((1-(2-(dimethylphosphoryl)-4-(2,4-dioxotetrahydropyrimidin-1(2H)-yl)phenyl)piperidin-4-yl)methyl)piperazin-1-yl)-3-fluorophenyl)amino)-3-(3-(3-methyl-2-oxoimidazolidin-1-yl)piperidin-1-yl)-1,2,4-triazin-6-carboxamide]: the DC50 is less than 1 nM.

As for `CN1CCN([C@@H]2CCCN(c3nnc(C(N)=O)c(Nc4ccc(N5CCN(CC6CCN(c7ccc(N8CCC(=O)NC8=O)c8cccnc78)CC6)CC5)c(F)c4)n3)C2)C1=O` [Compound 199, (R)-5-((4-(4-((1-(5-(2,4-dioxotetrahydropyrimidin-1(2H)-yl)quinolin-8-yl)piperidin-4-yl)methyl)piperazin-1-yl)-3-fluorophenyl)amino)-3-(3-(3-methyl-2-oxoimidazolidin-1-yl)piperidin-1-yl)-1,2,4-triazin-6-carboxamide], the DC50 was less than 1 nM.

Consider `CN1CCN([C@@H]2CCCN(c3nnc(C(N)=O)c(Nc4ccc(N5CCN(CC6CCN(c7ccc(NC8CCC(=O)NC8=O)nc7)C6)CC5)c(F)c4)n3)C2)C1=O` (stereo partly drawn) [Compound 200, 5-((4-(4-((1-(6-((2,6-dioxopiperidin-3-yl)amino)pyridin-3-yl)pyrrolidin-3-yl)methyl)piperazin-1-yl)-3-fluorophenyl)amino)-3-((R)-3-(3-methyl-2-oxoimidazolidin-1-yl)piperidin-1-yl)-1,2,4-triazin-6-carboxamide], for which the DC50 is less than 1 nM.

Molecule `CN1CCN([C@@H]2CCCN(c3nnc(C(N)=O)c(Nc4ccc(N5CCN(CC6CCN(c7ccc(NC8CCC(=O)NC8=O)cn7)C6)CC5)c(F)c4)n3)C2)C1=O` (stereo partly drawn) [Compound 201, 5-((4-(4-((1-(5-((2,6-dioxopiperidin-3-yl)amino)pyridin-2-yl)pyrrolidin-3-yl)methyl)piperazin-1-yl)-3-fluorophenyl)amino)-3-((R)-3-(3-methyl-2-oxoimidazolidin-1-yl)piperidin-1-yl)-1,2,4-triazin-6-carboxamide] registered a DC50 of less than 1 nM.

On to `CN1CCN([C@@H]2CCCN(c3nnc(C(N)=O)c(Nc4ccc(N5CCN(CC6CCN(c7ccc(NC8CCC(=O)NC8=O)c(F)c7)C6)CC5)c(F)c4)n3)C2)C1=O` (stereo partly drawn) [Compound 204, 5-((4-(4-((1-(4-((2,6-dioxopiperidin-3-yl)amino)-3-fluorophenyl)pyrrolidin-3-yl)methyl)piperazin-1-yl)-3-fluorophenyl)amino)-3-((R)-3-(3-methyl-2-oxoimidazolidin-1-yl)piperidin-1-yl)-1,2,4-triazin-6-carboxamide], for which the DC50 is less than 1 nM.

Take `Cc1cc(N2CCC(CN3CCN(c4ccc(Nc5nc(N6CCC[C@@H](N7CCN(C)C7=O)C6)nnc5C(N)=O)cc4F)CC3)C2)ccc1NC1CCC(=O)NC1=O` (stereo partly drawn) [Compound 206, 5-((4-(4-((1-(4-((2,6-dioxopiperidin-3-yl)amino)-3-methylphenyl)pyrrolidin-3-yl)methyl)piperazin-1-yl)-3-fluorophenyl)amino)-3-((R)-3-(3-methyl-2-oxoimidazolidin-1-yl)piperidin-1-yl)-1,2,4-triazin-6-carboxamide]: the DC50 was less than 1 nM.

With `CN1CCN([C@@H]2CCCN(c3nnc(C(N)=O)c(Nc4ccc(N5CCN(CC6CCN(c7ccc(NC8CCC(=O)NC8=O)c8c7OCO8)C6)CC5)c(F)c4)n3)C2)C1=O` (stereo partly drawn) [Compound 208, 5-((4-(4-((1-(7-((2,6-dioxopiperidin-3-yl)amino)benzo[d][1,3]dioxacyclopent-4-yl)pyrrolidin-3-yl)methyl)piperazin-1-yl)-3-fluorophenyl)amino)-3-((R)-3-(3-methyl-2-oxoimidazolidin-1-yl)piperidin-1-yl)-1,2,4-triazin-6-carboxamide], the DC50 is less than 1 nM.

In turn, `CN1CCN([C@@H]2CCCN(c3nnc(C(N)=O)c(Nc4ccc(N5CCN(CC6CCN(c7ccc(NC8CCC(=O)NC8=O)c8c7OCCO8)CC6)CC5)c(F)c4)n3)C2)C1=O` (stereo partly drawn) [Compound 211, 5-((4-(4-((1-(8-((2,6-dioxopiperidin-3-yl)amino)-2,3-dihydrobenzo[b][1,4]dioxan-5-yl)piperidin-4-yl)methyl)piperazin-1-yl)-3-fluorophenyl)amino)-3-((R)-3-(3-methyl-2-oxoimidazolidin-1-yl)piperidin-1-yl)-1,2,4-triazin-6-carboxamide] gave a DC50 of less than 1 nM.

The molecule `CN1CCN([C@@H]2CCCN(c3nnc(C(N)=O)c(Nc4ccc(N5CCN(CC6CCN(c7ccc8c(C9CCC(=O)NC9=O)nn(C)c8c7)C6)CC5)c(F)c4)n3)C2)C1=O` (stereo partly drawn) [Compound 212, 5-((4-(4-((1-(3-(2,6-dioxopiperidin-3-yl)-1-methyl-1H-indazol-6-yl)pyrrolidin-3-yl)methyl)piperazin-1-yl)-3-fluorophenyl)amino)-3-((R)-3-(3-methyl-2-oxoimidazolidin-1-yl)piperidin-1-yl)-1,2,4-triazin-6-carboxamide] displayed a DC50 of less than 1 nM.

The values above are taken from US20240360146A1, “BRUTON'S TYROSINE KINASE AND MUTANT DEGRADER, COMPOSITION AND APPLICATION THEREOF” (HANGZHOU HEALZEN THERAPEUTICS CO., LTD., priority 2021, published 2024).
